Measured values from PMC10265666, “Lung SPLUNC1 Peptide Derivatives in the Lipid Membrane Headgroup Kill Gram-Negative Planktonic and Biofilm Bacteria” (Biomacromolecules, 2023).
Values joined by “and” are separate entries in the source; they are usually repeats but may differ in a detail not shown here. Equal entries are not always repeated.

Columns and labels:
[1] = test system: Klebsiella pneumoniae biofilms; test: Biofilm growth (crystal violet); format: cell-based
Procedure: Minimum inhibitory concentration (MIC, defined as the minimum AMP concentration to prevent bacterial growth) and biofilm data were obtained by UV–vis spectroscopy using a BioTek Epoch 2 microplate reader.
The planktonic samples in the wells were then drained by inversion of the plate. The plate was washed with PBS prior to staining with 125 μL of 0.5% Crystal Violet (in 20% ethanol) for 15 min. Excess stain was removed by washing twice with distilled water. The bacterial remnants on the walls of the wells were analyzed at λ = 620 nm to observe any adhered bacteria. The absorbance values as percent of control (no AMP) do show a tendency of bacterial adherence to the wells. In this work, we will refer to the adhered bacteria after incubation at 37 °C for 16 h as biofilms.

[2] = Circular dichroism secondary structure in Euk33 ULVs; format: physicochemical; conditions: 10 μM peptide, 15 mM PBS pH 7, 37 °C
[3] = Circular dichroism secondary structure in G(−)IM ULVs; format: physicochemical; conditions: 10 μM peptide, 15 mM PBS pH 7, 37 °C
Procedure: Unilamellar vesicles (ULVs) of ∼600 Å diameter were prepared using an Avanti extruder: 200 μL of 20 mg/ml G(−)IM lipid in 15 mM PBS was extruded 21 times through Nucleopore filters of size 500 Å using 0.2 mL Hamilton syringes in the Avanti extruder. The final concentration of G(−)IM lipid in the ULVs was determined gravimetrically to be 15 mg/ml. Concentrated ULVs were added to 3 mL of 10 μM peptide in 15 mM PBS at pH 7 to create lipid/peptide molar ratios between 0:1 and 70:1. The samples remained at room temperature for ∼16 h before the CD measurement. Data were collected in 3 mL quartz cuvettes using a Jasco 1500 CD spectrophotometer at 37 °C in the Center for Nucleic Acids Science and Technology at Carnegie Mellon University. The samples were scanned from 200 to 240 nm 20 times, and the ellipticity (ϵ) results were averaged. Temperature was controlled at 37 °C via a Peltier element and water circulation through the sample compartment. Nitrogen gas was used at a flow rate between 20 and 25 ft^3/h (CFH). The parameters for scanning were: speed 100 nm/min, step size 1.0 nm, response time 1 second, bandwidth 1 nm, and sensitivity of 20 mdeg. OriginPro 2019 (OriginLab, Northampton, MA) was used to carry out a linear least-squares fit of the smoothed ellipticity traces to four secondary structural motifs representing α-helix, β-sheet, β-turn, and random coil.[20] This analysis gives a percentage match of each of the secondary structural motifs to the total sample ellipticity. Data were finally converted to mean residue ellipticity, taking into account the peptide concentration (10 μMolar) and number of amino acids (N), using the equation: MRE = (10^4/N)ϵ deg cm^2/dmol.

3T3 fibroblast cells = format: cell-based, murine
Procedure: The TetraZ cell counting kit was used to quantify cell proliferation and cell viability. It is based on a water-soluble tetrazolium salt, which, when reduced by cellular dehydrogenases, produces a chromophore. ∼5 × 10^4 immortalized mouse RAW 264.7 macrophages and 3T3 fibroblast cells were incubated in a 96-well plate and allowed to attach for 24 h. AMPs in cell culture medium (DMEM D5796, 10% FBS, 1% P/S) were added to the wells. Cells were incubated at 37 °C for 4 h with the SPLUNC1 peptide derivatives at 8, 16, 32, and 64 μM concentrations. 10 μL of TetraZ was added and incubated for an additional 1.5 h at 37 °C. A Biotek Epoch 2 visible spectrophotometer was used to read the absorbance. The absorbance by the chromophore at λ = 450nm is proportional to the number of live cells (see standard curves, Figures S1 and S2, and additional cell line results (Figures S3 and S4) in the S.I.).

[4] = test system: eukaryotic cells vs bacteria; test: Therapeutic index (eukaryotic cell kill concentration / bacterial kill concentration); format: cell-based
Procedure: But more important than cytotoxicity is the therapeutic index (TI), which is the concentration at which ≥90% of eukaryotic cells are killed divided by the concentration at which ≥90% of bacteria are killed. For A4-153, this TI value is an estimated ≈ 128 μM/16 μM ≈ 8. TI for A4-157 is an estimated 128 μM/24 μM ≈ 5, and the TI for A4-183 is an estimated 64 μM/20 μM ≈ 3.

[5] = G(−)IM/peptide molar ratio 10:1
[6] = G(−)IM/peptide molar ratio 15:1
[7] = G(−)IM/peptide molar ratio 20:1
[8] = G(−)IM/peptide molar ratio 30:1
[9] = G(−)IM/peptide molar ratio 50:1
[10] = G(−)IM/peptide molar ratio 70:1

CC[C@H](C)[C@H](NC(=O)[C@@H](NC(=O)[C@H](CO)NC(=O)[C@H](CCCCN)NC(=O)[C@@H](NC(=O)[C@H](CCCCN)NC(=O)CNC(=O)[C@H](Cc1c[nH]c2ccccc12)NC(=O)[C@@H](NC(=O)CNC(=O)CNC(=O)[C@@H](NC(=O)[C@H](Cc1c[nH]c2ccccc12)NC(=O)CNC(=O)[C@H](CCCCN)NC(=O)[C@@H](NC(=O)[C@H](CCCCN)NC(=O)[C@H](CCCCN)NC(=O)[C@H](Cc1ccccc1)NC(=O)[C@H](Cc1ccccc1)NC(=O)[C@H](CCCCN)NC(=O)[C@H](CCCCN)NC(=O)[C@@H](N)CC(C)C)C(C)C)C(C)C)C(C)C)C(C)C)C(C)C)C(=O)N[C@@H](CCCCN)C(=O)O (stereo in doubt) [A4-153]
prevention of biofilm formation ([1]; 25 K. pneumoniae substrains, 16 h at 37 °C, crystal violet, 620 nm): generally more efficient than the other peptides at preventing biofilm formation
number of colistin-resistant substrains in which the peptide was the most effective at inhibiting biofilm formation ([1]; out of 11 colistin-resistant substrains, at ∼16 μM): eight
number of colistin-susceptible substrains in which the peptide was the most effective at inhibiting biofilm formation ([1]; out of 13 colistin-susceptible substrains, at ∼16 μM): seven
Random ([2]; Euk33/peptide molar ratio 0:1): 57.7%
α-helix ([2]; Euk33/peptide molar ratio 0:1): 6.4%
β-sheet ([2]; Euk33/peptide molar ratio 0:1): 34.2%
β-turn ([2]; Euk33/peptide molar ratio 0:1): 1.7%
Random ([2]; Euk33/peptide molar ratio 5:1): 66.2%
α-helix ([2]; Euk33/peptide molar ratio 5:1): 9.7%
β-sheet ([2]; Euk33/peptide molar ratio 5:1): 24.1%
β-turn ([2]; Euk33/peptide molar ratio 5:1): 0%
Random ([2]; Euk33/peptide molar ratio 10:1): 64.2%
α-helix ([2]; Euk33/peptide molar ratio 10:1): 12.2%
β-sheet ([2]; Euk33/peptide molar ratio 10:1): 23.6%
β-turn ([2]; Euk33/peptide molar ratio 10:1): 0%
Random ([2]; Euk33/peptide molar ratio 20:1): 60.4%
α-helix ([2]; Euk33/peptide molar ratio 20:1): 14.1%
β-sheet ([2]; Euk33/peptide molar ratio 20:1): 25.5%
β-turn ([2]; Euk33/peptide molar ratio 20:1): 0%
Random ([2]; Euk33/peptide molar ratio 30:1): 57.5%
α-helix ([2]; Euk33/peptide molar ratio 30:1): 16.2% and 16%
β-sheet ([2]; Euk33/peptide molar ratio 30:1): 26.3%
β-turn ([2]; Euk33/peptide molar ratio 30:1): 0%
Random ([2]; Euk33/peptide molar ratio 70:1): 51.3%
α-helix ([2]; Euk33/peptide molar ratio 70:1): 20.5%
β-sheet ([2]; Euk33/peptide molar ratio 70:1): 28.2%
β-turn ([2]; Euk33/peptide molar ratio 70:1): 0%
Random ([3]; G(−)IM/peptide molar ratio 0:1): 57.7%
α-helix ([3]; G(−)IM/peptide molar ratio 0:1): 6.4%
β-sheet ([3]; G(−)IM/peptide molar ratio 0:1): 34.2%
β-turn ([3]; G(−)IM/peptide molar ratio 0:1): 1.7%
Random ([3]; G(−)IM/peptide molar ratio 1:1): 51.7%
α-helix ([3]; G(−)IM/peptide molar ratio 1:1): 11.9%
β-sheet ([3]; G(−)IM/peptide molar ratio 1:1): 32.4%
β-turn ([3]; G(−)IM/peptide molar ratio 1:1): 4.0%
Random ([3]; G(−)IM/peptide molar ratio 5:1): 62.9%
α-helix ([3]; G(−)IM/peptide molar ratio 5:1): 10.2%
β-sheet ([3]; G(−)IM/peptide molar ratio 5:1): 26.9%
β-turn ([3]; G(−)IM/peptide molar ratio 5:1): 0%
Random [3, 5]: 62.5%
α-helix [3, 5]: 14.8%
β-sheet [3, 5]: 17.7%
β-turn [3, 5]: 5.0%
Random [3, 6]: 15.6%
α-helix [3, 6]: 41.9%
β-sheet [3, 6]: 41.2%
β-turn [3, 6]: 1.3%
Random [3, 7]: 0%
α-helix [3, 7]: 78.3%
β-sheet [3, 7]: 8.0%
β-turn [3, 7]: 13.7%
Random [3, 8]: 4.6%
α-helix [3, 8]: 78.5%
β-sheet [3, 8]: 10.2%
β-turn [3, 8]: 6.7%
Random [3, 9]: 0%
α-helix [3, 9]: 77.4%
β-sheet [3, 9]: 13.6%
β-turn [3, 9]: 9.0%
Random [3, 10]: 0%
α-helix [3, 10]: 64.1%
β-sheet [3, 10]: 15.1%
β-turn [3, 10]: 20.8%
concentration required for 0% viable cells (estimate) (3T3 fibroblast cells): 128 µM
viable cells compared to the control (3T3 fibroblast cells; 64 µM): ~30%
concentration at which ≥90% of bacteria are killed ([4]; denominator of TI): 16 µM
concentration at which ≥90% of eukaryotic cells are killed (estimated) ([4]; numerator of TI): ≈ 128 μM
